Assay results: US20040067923A1, “Use of biogenic estriol sulfamate prodrugs for treatment of autoimmune diseases” (priority 2002, published 2004)

Key:
[1] = tested on: ovariectomised Wistar rats; details: 28 days
Protocol: Adult Wistar rats (6 months old) were ovariectomised and orally treated with estriol-3-O-sulfamate, reference compound and vehicle, respectively. Effects on bone mineral density after 28 days of treatment were determined.

[2] = tested on: ovariectomised Wistar rats
Protocol: Adult Wistar rats (6 months old) were ovariectomised and orally treated with estriol-3-O-sulfamate, reference compound and vehicle, respectively. Effects of treatment on uterine weight after 28 days of treatment were determined.

[3] = Heithecker et al., 1991; cited from earlier work
[4] = Head et al., 1998; cited from earlier work
[5] = 12 mg/day, Lindsay et al., 1979; cited from earlier work
[6] = ovariectomised Wistar rats, 28 days

Structure (SMILES)	oral dose at which the loss in bone mineral density could be nearly restored [1]	systemic estrogen activity after oral application compared with estriol ([2]; conclusion based on Examples 1, 2 and 3)	oral dose to increase the uterine weight to basal level [2, 6]	potency relative to estriol administered orally, uterine weight test ([2]; ovariectomised Wistar rats, oral)	uterine weight dose relative to dose showing osteoprotective effects (tissue selectivity) ([2]; ovariectomised Wistar rats, oral, 28 days)	bone sparing effect at doses used for oral application of estriol-3-sulfamate [1]	half-life [3]	oral amount needed to achieve comparable serum levels of estriol as after intravaginal application [4]	osteoprotective effects after oral administration [5]
C[C@]12CC[C@@H]3c4ccc(OS(N)(=O)=O)cc4CC[C@H]3[C@@H]1C[C@@H](O)[C@@H]2O [estriol-3-sulfamate]	10 μg/animal/day	much higher systemic estrogen activity	100 μg/animal/day	about 3 fold	ten times more	–	–	–	–
C[C@]12CC[C@@H]3c4ccc(O)cc4CC[C@H]3[C@@H]1C[C@@H](O)[C@@H]2O [estriol]	–	–	300 μg/animal/day	–	–	no bone sparing effect	1.5 to 5.3 h	ten times more	not able to show the osteoprotective effects
